{
  "source": "patent US10085990B2",
  "about": "“Tricyclic compounds as modulators of TNF-α synthesis and as PDE4 inhibitors” (vTv Therapeutics LLC, priority 2008, dated 2018)",
  "note": "Counter-ions that a name gives are not always drawn.",
  "data": [
    {"system": "TNF synthesis in human PBMC", "assay": "Human PBMC TNF Synthesis Assay", "type": "cell-based", "conditions": "LPS-stimulated human PBMC, overnight incubation, TNF ELISA; read-out: TNF inhib.", "procedure": "Human PBMC TNF Synthesis Assay\nHuman PBMC were obtained by from a healthy human donor leuko pak. Typically, all donors were pre-screened for STD, HIV and have been given a physical by a physician. One to two ampoules were thawed at 37° C. and then resuspended in 45 to 85 mL of RPMI+10% FBS to a final concentration of 2.5×10^6 cells/mL. Resuspended cells were filtered to remove any large clumps.\nPrepare compounds for addition to cells: All compounds were DMSO stocks at 20 mM. Working stock for cell testing were prepared as 4× concentrated material in RPMI+10% FBS. Compounds were added to a polypropylene block and then diluted with the appropriate amount of RPMI+10% FBS. Typically 2.6 μL of 20 mM stock was diluted to 650 μL final volume to yield an 80 μM starting concentration in the stocks. RPMI was added to DMSO stock by pipetting into the tube or block. The compounds were then serial diluted with RPMI+10% FBS. The final DMSO concentrations were not greater than 0.5% in the assay.\nCompounds were added to the cells as 4× working stock. 50 μL of compound was prepared above is added to the cells and re-equilibrated in a humidified 5% CO2 incubator at 37° C. for 30 minutes.\nA stock of LPS was prepared using RPMI+10% FBS. To prepare the stock, 2.8 μL of LPS (5 mg/mL; Sigma Cat #L3024) was added to 35 mL of media. 50 μL of the LPS in media was added to the cells. Control cultures without LPS received only RPMI+10% FBS. After an overnight incubation at 37° C., the cell culture supernatant was harvested and stored in a polypropylene 96 well plate.\nSamples were tested for TNF as per the manufacturer's instructions (TNF ELISA; R&D Systems, Cat #DY210). The samples were serially diluted with PBS+1% BSA to the appropriate dilution condition for the cell prep, typically a 1:4 or 1:6 dilution.", "units": {"IC50": "nM"}, "values": [
      {"smiles": "COc1cccc2c1ncc1c(=O)n(-c3cccc(Cl)c3)c(=O)n(C3CCN(C(=O)c4ccccc4)CC3)c12", "note": "[Example 91, 1-(1-Benzoyl-piperidin-4-yl)-3-(3-chloro-phenyl)-7-methoxy-1H-pyrimido[5,4-c]quinoline-2,4-dione]", "IC50": 1},
      {"smiles": "COc1cccc2c1ncc1c(=O)n(-c3cccc(Cl)c3)c(=O)n(C3CCN(S(=O)(=O)C(C)C)CC3)c12", "note": "[Example 93, 3-(3-Chloro-phenyl)-7-methoxy-1-[1-(propane-2-sulfonyl)-piperidin-4-yl]-1H-pyrimido[5,4-c]quinoline-2,4-dione]", "IC50": 0.4},
      {"smiles": "COc1cccc2c1ncc1c(=O)n(-c3cccc(Cl)c3)c(=O)n(C3CCN(S(=O)(=O)N(C)C)CC3)c12", "note": "[Example 94, 4-[3-(3-Chloro-phenyl)-7-methoxy-2,4-dioxo-3,4-dihydro-2H-pyrimido[5,4-c]quinolin-1-yl]-piperidine-1-sulfonic acid dimethylamide]", "IC50": 0.4},
      {"smiles": "COc1cccc2c1ncc1c(=O)n(-c3cccc(Cl)c3)c(=O)n(C3CCN(S(=O)(=O)c4ccccc4)CC3)c12", "note": "[Example 95, 1-(1-Benzenesulfonyl-piperidin-4-yl)-3-(3-chloro-phenyl)-7-methoxy-1H-pyrimido[5,4-c]quinoline-2,4-dione]", "IC50": 1},
      {"smiles": "CCNC(=O)N1CCC(n2c(=O)n(-c3cccc(Cl)c3)c(=O)c3cnc4c(OC)cccc4c32)CC1", "note": "[Example 97, 4-[3-(3-Chloro-phenyl)-7-methoxy-2,4-dioxo-3,4-dihydro-2H-pyrimido[5,4-c]quinolin-1-yl]-piperidine-1-carboxylic acid ethylamide]", "IC50": 0.6},
      {"smiles": "COc1cccc2c1ncc1c(=O)n(-c3cccc(Cl)c3)c(=O)n(C3CCN(C(=O)NC(C)C)CC3)c12", "note": "[Example 98, 4-[3-(3-Chloro-phenyl)-7-methoxy-2,4-dioxo-3,4-dihydro-2H-pyrimido[5,4-c]quinolin-1-yl]-piperidine-1-carboxylic acid isopropylamide]", "IC50": 0.3},
      {"smiles": "COc1cccc2c1ncc1c(=O)n(-c3ccccc3Cl)c(=O)n(C3CCC(C)CC3)c12", "note": "(stereo not drawn) [Example 99, 3-(2-Chloro-phenyl)-7-methoxy-1-(4-methyl-cyclohexyl)-1H-pyrimido[5,4-c]quinoline-2,4-dione]", "IC50": 20},
      {"smiles": "COc1cccc2c1ncc1c(=O)n(-c3cccc(Cl)c3)c(=O)n([C@H]3CC[C@H](C(=O)O)CC3)c12", "note": "[Example 103, Trans-4-[3-(3-Chloro-phenyl)-7-methoxy-2,4-dioxo-3,4-dihydro-2H-pyrimido[5,4-c]quinolin-1-yl]-cyclohexanecarboxylic acid.hydrochloride]", "IC50": 1},
      {"smiles": "COc1cccc2c1ncc1c(=O)n(-c3cccc(Cl)c3)c(=O)n(C3CCCCC3)c12", "note": "[Example 106, 3-(3-Chloro-phenyl)-1-cyclohexyl-7-methoxy-1H-pyrimido[5,4-c]quinoline-2,4-dione]", "IC50": 4},
      {"smiles": "COc1cccc2c1ncc1c(=O)n(-c3ccc4c(c3)OCO4)c(=O)n(C3CCN(C(=O)OC(C)(C)C)CC3)c12", "note": "[Example 107, 4-(3-Benzo[1,3]dioxol-5-yl-7-methoxy-2,4-dioxo-3,4-dihydro-2H-pyrimido[5,4-c]quinolin-1-yl)-piperidine-1-carboxylic acid tert-butyl ester]", "IC50": 1},
      {"smiles": "COc1cccc2c1ncc1c(=O)n(-c3ccc4c(c3)OCO4)c(=O)n(C3CCNCC3)c12", "note": "[Example 108, 3-Benzo[1,3]dioxol-5-yl-7-methoxy-1-piperidin-4-yl-1H-pyrimido[5,4-c]quinoline-2,4-dione.dihydrochloride]", "IC50": 450},
      {"smiles": "COc1cccc2c1ncc1c(=O)n(-c3cccc(SC)c3)c(=O)n(C3CCCC3)c12", "note": "[Example 111, 1-Cyclopentyl-7-methoxy-3-(3-methylsulfanyl-phenyl)-1H-pyrimido[5,4-c]quinoline-2,4-dione]", "IC50": 74},
      {"smiles": "COc1cccc2c1ncc1c(=O)n(-c3cccc(S(C)(=O)=O)c3)c(=O)n(C3CCCC3)c12", "note": "[Example 112, 1-Cyclopentyl-3-(3-methanesulfonyl-phenyl)-7-methoxy-1H-pyrimido[5,4-c]quinoline-2,4-dione]", "IC50": 280},
      {"smiles": "COc1cccc2c1ncc1c(=O)n(-c3cccc(Cl)c3)c(=O)n([C@@H]3CCN(C(=O)OC(C)(C)C)C3)c12", "note": "[Example 113, 3-[(R)-3-(3-Chloro-phenyl)-7-methoxy-2,4-dioxo-3,4-dihydro-2H-pyrimido[5,4-c]quinolin-1-yl]-pyrrolidine-1-carboxylic acid tert-butyl ester]", "IC50": 0.3},
      {"smiles": "COc1cccc2c1ncc1c(=O)n(-c3cccc(Cl)c3)c(=O)n([C@@H]3CCNC3)c12", "note": "[Example 114, (R)-3-(3-Chloro-phenyl)-7-methoxy-1-pyrrolidin-3-yl-1H-pyrimido[5,4-c]quinoline-2,4-dione.dihydrochloride]", "IC50": 31},
      {"smiles": "COc1cccc2c1ncc1c(=O)n(-c3cccc(Cl)c3)c(=O)n([C@H]3CCN(C(=O)OC(C)(C)C)C3)c12", "note": "[Example 116, 3-[(S)-3-(3-Chloro-phenyl)-7-methoxy-2,4-dioxo-3,4-dihydro-2H-pyrimido[5,4-c]quinolin-1-yl]-pyrrolidine-1-carboxylic acid tert-butyl ester]", "IC50": 2},
      {"smiles": "COc1cccc2c1ncc1c(=O)n(-c3cccc(Cl)c3)c(=O)n([C@H]3CCNC3)c12", "note": "[Example 117, (S)-3-(3-Chloro-phenyl)-7-methoxy-1-pyrrolidin-3-yl-1H-pyrimido[5,4-c]quinoline-2,4-dione.dihydrochloride]", "IC50": 1000},
      {"smiles": "COc1cccc2c1ncc1c(=O)n(-c3ccc4c(c3)OCCO4)c(=O)n(C3CCCC3)c12", "note": "[Example 120, 1-Cyclopentyl-3-(2,3-dihydro-benzo[1,4]dioxin-6-yl)-7-methoxy-1H-pyrimido[5,4-c]quinoline-2,4-dione]", "IC50": 240},
      {"smiles": "COC(=O)N1CCC(n2c(=O)n(-c3cccc(Cl)c3)c(=O)c3cnc4c(OC)cccc4c32)CC1", "note": "[Example 124, 4-[3-(3-Chloro-phenyl)-7-methoxy-2,4-dioxo-3,4-dihydro-2H-pyrimido[5,4-c]quinolin-1-yl]-piperidine-1-carboxylic acid methyl ester]", "IC50": 50000},
      {"smiles": "COc1cccc2c1ncc1c(=O)n(-c3cccc(Cl)c3)c(=O)n(CC3CCN(S(C)(=O)=O)CC3)c12", "note": "[Example 126, 3-(3-Chloro-phenyl)-1-(1-methanesulfonyl-piperidin-4-ylmethyl)-7-methoxy-1H-pyrimido[5,4-c]quinoline-2,4-dione]", "IC50": 2},
      {"smiles": "COc1cccc2c1ncc1c(=O)n(-c3cccc(Cl)c3)c(=O)n([C@H]3CC[C@H](NS(C)(=O)=O)CC3)c12", "note": "[Example 127, N-{4-[(S)-3-(3-Chloro-phenyl)-7-methoxy-2,4-dioxo-3,4-dihydro-2H-pyrimido[5,4-c]quinolin-1-yl]-trans-cyclohexyl}-methanesulfonamide]", "IC50": 6}
    ]}
  ]
}
